Source: PMC10424441, “Macrophage targeted polymeric curcumin nanoparticles limit intracellular survival of Mycobacterium tuberculosis through induction of autophagy and augment anti-TB activity of isoniazid in RAW 264.7 macrophages” (Frontiers in Immunology, 2023)
Read-outs that look alike come from different tables or passages of the source.

Experiments:
[1] = test system: MDR clinical isolate of MTB, strain-2; assay type: cell-based, Mycobacterium tuberculosis; settings: 10μM and 20μM, 48 and 72h
[2] = test system: Caspase-3, cleaved caspase-3, cleaved PARP, Bax and Bcl-2 in RAW cells with or without MTB infection; assay: Western blot of pro and anti-apoptotic proteins; assay type: cell-based, Murine; settings: 10μM and 20μM
Experimental: (§1) Cells were harvested, washed thrice with 1X cold PBS and lysed in RIPA lysis buffer containing 1% protease inhibitor cocktail (Sigma) and 3% phosphatase inhibitor cocktail (Sigma). Total protein concentration in the cell lysate was estimated by Bradford reagent (Sigma). Samples containing equal amounts of protein (80μg/well) were run on 10% SDS PAGE followed by electro transfer on nitrocellulose membrane. Membranes were blocked with blocking buffer (5% w/v skimmed milk in 1X TBST) for 30 minutes followed by incubation with respective antibodies for 4 h at room temperature. Further, membranes were washed thrice with 1xTBST for 15 minutes and incubated appropriate secondary antibody HRP conjugate for 2 h and blots were developed with Enhanced Chemiluminescence kit (Roche) according to manufacturer’s protocol. Densitometric analysis was performed using ImageJ software.

[3] = test system: LC3-I to LC3-II conversion and p62 degradation in MTB H37Rv infected RAW cells; assay: Western blot of autophagy markers, MTB infected cells; assay type: cell-based, Murine; settings: 10μM and 20μM, MTB H37Rv infected RAW macrophages
Experimental: as §1

[4] = test system: GFP-MTB H37Rv infected RAW 264.7 cells; assay: Confocal microscopy of phagosome lysosome fusion; assay type: cell-based, Murine; settings: 10μM and 20μM, 48h, MOI 5
Experimental: RAW 264.7 cells (5 x 10^5 cells/ml) were seeded on sterile coverslips in 6-well plates and incubated at 37°C for overnight in CO2 incubator. Next day cells were infected with GFP-MTB H37Rv at MOI 5 and treated with CMN for 48h. Lysotracker Red (Thermo) was added to each well at concentration of 70nM for 3h prior to the end of incubation. Coverslips were washed twice with sterile 1XPBS and fixed with 4% para formaldehyde. Cover slips were mounted on glass slides using Prolong® Gold Antifade (Thermo) mounting reagent containing DAPI and images were acquired on Zeiss LSM 510 Meta confocal microscope (Carl Zeiss) equipped with 63X oil immersion lens. Optical sections with Z-stack were taken to evaluate colocalization and images were deconvolved.

MTB H37Rv = assay: Macrophage infection and CFU assay (intracellular survival in RAW 264.7); assay type: cell-based, Mycobacterium tuberculosis; settings: for Percent survival of MTB (percentage of control): adjunctive action experiment, dose not given
[5] = test system: MDR clinical isolate of MTB, strain-1; assay type: cell-based, Mycobacterium tuberculosis; settings: 10μM and 20μM, 48 and 72h
[6] = test system: LC3-I to LC3-II conversion and p62 degradation in RAW 264.7 cells; assay: Western blot of autophagy markers, uninfected cells; assay type: cell-based, Murine; settings: 10μM and 20μM, 24h
Experimental: as §1

[7] = Oral pharmacokinetics study; settings: 50 mg/kg

## COc1cc(C=CC(=O)CC(=O)C=Cc2ccc(O)c(OC)c2)ccc1O [CMN, 1,7-bis (4-hydroxy-3-methoxy-phenyl) hepta-1,6-diene-3,5-dione]
[1]
  Percent survival: inhibited the percent survival
[1]; treatment with 3-MA
  Percent survival: increase in the percent survival that was comparable to untreated controls
[2]; 24h, RAW cells with or without MTB infection
  Expression of anti-apoptotic protein Bcl-2: downregulation
[2]; 24h post treatment, compared to untreated cells
  Expression of pro apoptotic proteins cleaved caspase-3, cleaved PARP and Bax: upregulated
[3]
  Autophagy induction (LC3-I to LC3-II conversion and p62 degradation): autophagy induction in MTB infected cells after CMN treatment
[4]
  Phagosome lysosome fusion (co localization of GFP and Lysotracker Red): formation of yellow compartment in both the CMN treatment groups after 48h
MTB H37Rv; 10μM, 48h, in presence of autophagy inhibitor 3-MA
  Percent survival (percentage of control): 87.1 ± 6.6%
MTB H37Rv; 10μM, 48h post infection, RAW 264.7, MOI 5
  Percent survival (percentage of control): 57 ± 4.6%
MTB H37Rv; 10μM, 72h, in presence of autophagy inhibitor 3-MA
  Percent survival (percentage of control): 80.1 ± 6.8%
MTB H37Rv; 10μM, 72h post infection, RAW 264.7, MOI 5
  Percent survival (percentage of control): 49.1 ± 7.8%
MTB H37Rv; 20μM, 48h, RAW 264.7, MOI 5
  Percent survival (percentage of control): 47.7 ± 4.1%
MTB H37Rv; 20μM, 48h, in presence of autophagy inhibitor 3-MA
  Percent survival (percentage of control): 87.1 ± 4.6%
MTB H37Rv; 20μM, 72h, RAW 264.7, MOI 5
  Percent survival (percentage of control): 45.6 ± 6.1%
MTB H37Rv; 20μM, 72h, in presence of autophagy inhibitor 3-MA
  Percent survival (percentage of control): 85.7 ± 8.8%
MTB H37Rv; 48h of treatment
  Percent survival of MTB (percentage of control): 41.6 ± 3.5%
MTB H37Rv; 72h of treatment
  Percent survival of MTB (percentage of control): 34.8 ± 3.0%
[5]
  Percent survival: inhibited the percent survival
[5]; treatment with 3-MA
  Percent survival: increase in the percent survival that was comparable to untreated controls
[6]
  Conversion of LC3-I to LC3-II (immunoblotting): conversion of LC3-I to II at 10μM and 20μM dose
  Degradation of p62 (immunoblotting): p62 degradation at 10μM and 20μM dose
[7]; BALB/c, mouse, in vivo, po
  AUC(0-inf): 170 ng·h/mL
  AUC(0-t): 119 ng·h/mL
  Cmax: 45.2 ng/mL
  MRT inf: 5.07 h
  Tmax: 15 min
  half-life: 220 min
  k el: 5.28e-05 s⁻¹
[7]; oral, BALB/c mice
  Time up to which CMN was detected in plasma after administration: up to 8 h

## NNC(=O)c1ccncc1 [INH, isoniazid]
MTB H37Rv; 48h of treatment
  Percent survival of MTB (percentage of control): 35.1 ± 2.8%
MTB H37Rv; 72h of treatment
  Percent survival of MTB (percentage of control): 22.9 ± 4.5%
